Test results published in PMC10488051, “Screening, Synthesis and Biochemical Characterization of SARS-CoV-2 Protease Inhibitors” (International Journal of Molecular Sciences, 2023).
Read-outs that look alike come from different tables or passages of the source.

Key:
SARS-CoV-2 PL^pro = SARS-CoV-2 PL^pro (Severe acute respiratory syndrome coronavirus 2, UniProt P0DTD1); experiment: PL^pro enzymatic inhibition assay (FRET-based, Z-RLRGG-AMC substrate); assay type: biochemical; details: for Kd: enzymatic inhibition assay, 25 °C, pH 7.5
SARS-CoV-2 M^pro = SARS-CoV-2 M^pro (Severe acute respiratory syndrome coronavirus 2, UniProt P0DTD1); experiment: biochemical; assay type: biochemical
PL^pro = PL^pro (Severe acute respiratory syndrome coronavirus 2, UniProt P0DTD1); assay type: binding; details: no reducing agents; 1 h incubation at room temperature
[1] = Table 1 thiazole series, uncertainty approx. 1.8-fold of Kd
[2] = Table 2 disulfide compounds, PL^pro dialyzed to avoid DTT
[3] = Table 2 disulfide compounds, enzymatic inhibition assay, 25 °C, pH 7.5

Compound	Kd (SARS-CoV-2 PL^pro; [1]) [µM]	Kd (SARS-CoV-2 M^pro) [µM]	other results
Cc1ccc(N(CCC(=O)O)c2nc(-c3ccc(C#N)cc3)c(C=O)s2)cc1 [Compound 29]	> 200	> 200	–
COC(=O)C=C1SC(N(CCC(=O)O)c2cccc3ccccc23)=NC1=O [Compound 17]	> 200	> 200	–
O=C(O)CCN(c1nc(-c2ccc3ccccc3c2)cs1)c1cccc2ccccc12 [Compound 8]	35	> 200	–
Cc1csc(N(CCC(=O)O)c2cccc3ccccc23)n1 [Compound 4]	110	> 200	Fold weakening of PL^pro interaction compared to compound 3 (SARS-CoV-2 PL^pro; vs parent compound 3): 8 fold
O=C(CNc1ccccc1SSc1ccccc1NCC(=O)c1ccccc1)c1ccccc1 [Compound 38]	–	–	Kd (SARS-CoV-2 PL^pro; [2]): 1.9 µM; Kd (SARS-CoV-2 M^pro; [3]): > 200 µM
C/C(=N/N=C(/C)c1sc(N(CCC(=O)O)c2cccc3ccccc23)nc1C)c1sc(N(CCC(=O)O)c2cccc3ccccc23)nc1C [Compound 24]	8	> 200	–
O=C(O)CCN(c1nc(CO)cs1)c1cccc2ccccc12 [Compound 10]	35	> 200	–
Cc1nc(N(CCC(=O)O)c2cccc3ccccc23)sc1C(=O)O [Compound 18]	≥ 50	> 200	–
Cc1ccc(N(CCC(=O)O)c2nc(CNc3ccccc3)cs2)cc1 [Compound 26]	16	> 200	Fold improvement of PL^pro affinity over compound 12 (SARS-CoV-2 PL^pro): 2 fold
Cc1ccc(N(CCC(=O)O)c2nc(C)c(C(=O)C=Cc3ccc(Cl)cc3)s2)cc1 [Compound 25b]	66	> 200	–
CCOC(=O)c1sc(N(CCC(=O)O)c2cccc3ccccc23)nc1C [Compound 20]	29	> 200	–
O=C1CCN(c2ccccc2SSc2ccccc2N2CCC(=O)NC2=O)C(=O)N1 [Compound 37]	–	–	Kd (SARS-CoV-2 PL^pro; [2]): 0.63 µM; Kd (SARS-CoV-2 M^pro; [3]): > 200 µM
O=C(O)CCN(c1nc(CNc2ccccc2)cs1)c1cccc2ccccc12 [Compound 12]	29	> 200	–
Cc1ccc(C)n1NC(=O)CCNc1ccccc1SSc1ccccc1NCCC(=O)Nn1c(C)ccc1C [Compound 36]	–	–	Kd (SARS-CoV-2 PL^pro; [2]): 1.9 µM; Kd (SARS-CoV-2 M^pro; [3]): > 200 µM
CCOC(=O)Cc1csc(N(CCC(=O)O)c2cccc3ccccc23)n1 [Compound 11]	> 200	> 200	–
NC(=S)N(CCC(=O)O)c1cccc2ccccc12 [Compound 2]	29	> 200	Fold increase in PL^pro binding affinity compared to compound 1 (SARS-CoV-2 PL^pro; vs starting compound 1): 2 fold
O=C(O)CCN(C1=NC(=O)C(=Cc2cccs2)S1)c1cccc2ccccc12 [Compound 16]	≥ 50	> 200	–
O=C(O)CCN(c1nc(-c2ccc(Br)cc2)cs1)c1cccc2ccccc12 [Compound 6a]	≥ 50	> 200	–
O=C(O)CCN(C1=NC(=O)/C(=C/c2ccc(F)cc2)S1)c1cccc2ccccc12 [Compound 13c]	8.6	8.6	–
O=C(O)CCN(c1nc(-c2ccc(Cl)cc2)cs1)c1cccc2ccccc12 [Compound 6b]	≥ 50	> 200	–
CC(=O)c1sc(N(CCC(=O)O)c2cccc3ccccc23)nc1C [Compound 19]	≥ 50	> 200	–
O=C(O)CCN(C1=NC(=O)C(=Cc2ccc(Br)cc2)S1)c1cccc2ccccc12 [Compound 13a]	24	6.5	Fold more potent for M^pro inhibition than PL^pro (SARS-CoV-2 M^pro; ratio of Kd values): 3.7 fold
O=C(O)CCN(c1nc(-c2ccc([N+](=O)[O-])cc2)cs1)c1cccc2ccccc12 [Compound 6d]	25	26	–
N#Cc1ccc(-c2csc(N(CCC(=O)O)c3ccc(N)cc3)n2)cc1 [Compound 30c]	32	> 200	–
Cc1nc(N(CCC(=O)O)c2cccc3ccccc23)sc1C(=O)/C=C/c1ccc(F)cc1 [Compound 21c]	52	> 200	Fold improvement of PL^pro interaction in styryl ketone series (SARS-CoV-2 PL^pro): two times
Cc1nc(N(CCC(=O)O)c2cccc3ccccc23)sc1C(=O)/C=C/c1ccc(Cl)cc1 [Compound 21b]	29	17	Fold higher PL^pro affinity than compound 25b (SARS-CoV-2 PL^pro): 2 fold; Fold improvement of PL^pro interaction in styryl ketone series (SARS-CoV-2 PL^pro): 4

Compound	Kd (SARS-CoV-2 PL^pro; [1]) [µM]	Kd (SARS-CoV-2 M^pro) [µM]	other results
C/C(=N/Nc1ccccc1)c1sc(N(CCC(=O)O)c2cccc3ccccc23)nc1C [Compound 23]	75	> 200	–
Cc1ccc(N(CCC(=O)O)c2nc(C)c(C(=O)C=Cc3ccccc3)s2)cc1 [Compound 25a]	83	> 200	–
O=C(O)CCNc1ccccc1SSc1ccccc1NCCC(=O)O [Compound 33]	–	–	Kd (SARS-CoV-2 PL^pro; [2]): 2 µM; Kd (SARS-CoV-2 M^pro; [3]): > 200 µM
Nc1ccc(N(CCC(=O)O)c2nc(-c3ccc(Cl)cc3)cs2)cc1 [Compound 30a]	≥ 50	> 200	–
O=C(O)CCN(C1=NC(=O)CS1)c1cccc2ccccc12 [Compound 5]	> 200	> 200	–
Cc1nc(N(CCC(=O)O)c2cccc3ccccc23)sc1C(=O)/C=C/c1cccc2ccccc12 [Compound 22]	5.2	10	Fold stronger PL^pro affinity than compound 4 (SARS-CoV-2 PL^pro; vs compound 4): more than 20 fold
Cc1ccc(N(CCC(=O)O)c2nc(-c3ccc(C#N)cc3)c(/C=N\NC(N)=S)s2)cc1 [Compound 28]	8.8	≥ 50	–
O=C(O)CCN(C1=NC(=O)C(=Cc2ccc(O)cc2O)S1)c1cccc2ccccc12 [Compound 14]	9.2	> 200	melting point: 205 to 206 °C
O=C(O)CCN(c1nccs1)c1cccc2ccccc12 [Compound 3, 3-[naphthalene-1-yl(1,3-thiazol-2-yl)amino]propanoic acid]	14	25	–
Cc1ccc(N(CCC(=O)O)c2nc(-c3ccc(F)cc3)c(/C=N\Nc3ccccc3)s2)cc1 [Compound 27b]	≥ 50	> 200	–
O=C(O)CCN(C1=NC(=O)C(=Cc2ccccc2O)S1)c1cccc2ccccc12 [Compound 15]	≥ 50	> 200	melting point: 203 to 204 °C
O=C(O)CCN(c1nc(-c2ccc(F)cc2)cs1)c1cccc2ccccc12 [Compound 6c]	≥ 50	> 200	–
Nc1ccc(N(CCC(=O)O)c2nc(-c3ccc(F)cc3)cs2)cc1 [Compound 30b]	≥ 50	> 200	–
O=C(CCNc1ccccc1SSc1ccccc1NCCC(=O)N/N=C/c1cccs1)N/N=C/c1cccs1 [Compound 35]	–	–	Kd (SARS-CoV-2 PL^pro; [2]): 2.5 µM; Kd (SARS-CoV-2 M^pro; [3]): > 200 µM
N#Cc1ccc(-c2csc(N(CCC(=O)O)c3cccc4ccccc34)n2)cc1 [Compound 6e]	20	> 200	–
NNC(=O)CCNc1ccccc1SSc1ccccc1NCCC(=O)NN [Compound 34]	–	–	Kd (SARS-CoV-2 PL^pro; [2]): 0.43 µM; Fold more potent for PL^pro than M^pro (SARS-CoV-2 PL^pro; ratio of Kd values): eight times; Kd (SARS-CoV-2 M^pro; [3]): 3.5 µM; Covalent binding to PL^pro by mass spectrometry (PL^pro): covalent binding of compound 34 to PLpro
Cc1nc(N(CCC(=O)O)c2cccc3ccccc23)sc1C(=O)/C=C/c1ccccc1 [Compound 21a]	110	> 200	–
O=C(O)CCN(c1nc(-c2ccc(Cl)c(Cl)c2)cs1)c1cccc2ccccc12 [Compound 7]	≥ 50	> 200	–
Nc1ccc(N(CCC(=O)O)c2nc(-c3ccc(C(F)(F)F)cc3)cs2)cc1 [Compound 30d]	≥ 50	> 200	–
Cc1ccc(N(CCC(=O)O)c2nc(-c3ccc(Cl)cc3)c(/C=N\Nc3ccccc3)s2)cc1 [Compound 27a]	35	> 200	–
O=C(O)CCN(c1nc(CCl)cs1)c1cccc2ccccc12 [Compound 9]	≥ 50	> 200	–
O=C(O)CCN(C1=NC(=O)C(=Cc2ccc(Cl)cc2)S1)c1cccc2ccccc12 [Compound 13b]	≥ 50	> 200	–
O=C(O)CCNc1cccc2ccccc12 [Compound 1, 3-(naphtylamino]propanoic acid]	68	> 200	–
Cc1ccc(N(CCC(=O)O)c2nc(C)c(C(=O)C=Cc3ccc(F)cc3)s2)cc1 [Compound 25c]	58	> 200	–
Cc1ccc(N(CCC(=O)O)c2nc(-c3ccc(C#N)cc3)c(/C=N\Nc3ccccc3)s2)cc1 [Compound 27c]	15	> 200	–
O=C(O)CCN(c1nc(C(=O)/C=C/c2ccccc2)c(C(=O)/C=C/c2ccccc2)s1)c1cccc2ccccc12 [Compound 31]	≥ 50	≥ 50	–
